SMILES strings stand for the structures. Entries after “also recorded” stand apart in the source; their conditions may differ. Where two headings read alike, the source gives them in different places.

The IC50 is the concentration at which inhibition is half-maximal. For orientation: Ki means a dissociation constant, usually derived from enzyme kinetics or from competition with a known ligand.

One data set concerns CYP3A. As to the kind of experiment: IC50-shift experiment, CYP3A in RLMs. Type of data set: in vitro ADME. Particulars: rat, rat liver microsomes, probe midazolam; for IC50 at 30 min: midazolam 3.5 μM.
For data set [1], the system named is CYP2C-1. As to the kind of experiment: Reversible inhibition kinetics (Lineweaver-Burk), CYP2C-1 in RLMs. Type of data set: in vitro ADME, rat. As for the experimental part:
(§1) The components of the incubation system were as follows: 0.20 mg/mL HLMs or 0.20 mg/mL RLMs, 0.1 M Tris-HCl, vortioxetine, and the probe substrates of each enzyme. In the study of Km’s (Michaelis–Menten constant) experiment, midazolam (1, 2, 5, 10, 20, 50 and 100 μM in HLMs and RLMs) corresponded to CYP3A4/3A; bupropion (10, 20, 50, 100, 200, 500, 1,000 and 2000 μM in HLMs; 1, 2, 5, 10, 20, 50, 100 and 200 μM in RLMs) corresponded to CYP2B6/2B; amodiaquine (5, 10, 20, 50, 100 and 200 μM in HLMs; 10, 20, 50, 100, 200, 500 μM in RLMs) corresponded to CYP2C8/CYP2C-1; losartan (1, 2, 5, 10, 20, 50, 100, 200 μM in HLMs; 10, 20, 50, 100, 200, 500 and 1,000 μM in RLMs) corresponded to CYP2C9/CYP2C-2; mephenytoin (20, 50, 100, 200, 500 and 1,000 μM in HLMs; 5, 10, 20, 50, 100, 200, 500 and 1,000 μM in RLMs) corresponded to CYP2C19/CYP2C-3; and dextromethorphan (1, 2, 5, 10, 20, 50 and 100 μM in HLMs and RLMs) corresponded to CYP2D6/CYP2D. After 5.0 min of preincubation in the shaking water bath, the reaction was started with the addition of 1.0 mM NADPH. The incubated temperature at 37°C for 30 min. After the incubation, the enzyme reaction was stopped by cooling at −80°C, and 200 μL of acetonitrile and 20 μL of internal standard diazepam (200 ng/mL) were added for protein precipitation. The solution was fully vortexed and centrifuged at 13,000 × rpm for 10 min, and the supernatant was collected for data analysis by UPLC-MS/MS.
(§2) The inhibitory mechanism of the inhibitor on the enzyme was generally used by different concentrations of the inhibitor against different concentrations of the probe substrate. The concentrations of the inhibitor and the concentrations of probe substrates in the experiment were estimated based on IC50 and Km values, respectively.
(§3) In RLMs, the concentrations of the substrates midazolam and dextromethorphan were 0.8, 1.6, 3.5, 7 μM and 5, 10, 20, 40 μM, respectively, vortioxetine concentrations were 4, 8, 16, 32 μM. The concentrations of mephenytoin and amodiaquine were 100, 200, 400, 800 μM and 5, 10, 20, 40 μM, respectively, vortioxetine concentrations were 5, 10, 20, 40 μM. The losartan concentrations were 4, 8, 15, 30 μM, corresponding to vortioxetine concentrations of 0.08, 0.15, 0.3, 0.6 μM. […]
(§4) All experiments results were detected by UPLC-MS/MS, which equipped with a Waters Acquity UPLC system (Milford, MA, United States) and a Waters Xevo TQ-S triple quadrupole tandem mass spectrometer with an electrospray ionization source (Milford, MA, United States). […]
(§5) IC50 values and enzyme kinetic parameters were calculated by Graphpad Prism 6.0 (GraphPad software Inc., CA, United States). […] Data for each experiment were expressed as mean ± SD (n = 3).

Another data set relates to CYP2D. The data set is described as follows: Reversible inhibition kinetics (Lineweaver-Burk), CYP2D in RLMs. In kind it is in vitro ADME, rat. How it is done: as §1, with “After 5.0 min of preincubation in the shaking water bath, the reaction was started with the addition of 1.0 mM NADPH. The incubated temperature at 37°C for 30 min. After the incubation, the enzyme reaction was stopped by cooling at −80°C, and 200 μL of acetonitrile and 20 μL of internal standard diazepam (200 ng/mL) were added for protein precipitation. The solution was fully vortexed and centrifuged at 13,000 × rpm for 10 min, and the supernatant was collected for data analysis by UPLC-MS/MS.” left out
as §4, §5

In a further data set the test system is CYP2C-2. As to the kind of experiment: IC50 of vortioxetine on CYP2C-2 (losartan) in RLMs. The conditions noted are these: rat, rat liver microsomes, probe losartan. In kind it is in vitro ADME. As for the experimental part: as §1, with “After 5.0 min of preincubation in the shaking water bath, the reaction was started with the addition of 1.0 mM NADPH. The incubated temperature at 37°C for 30 min. After the incubation, the enzyme reaction was stopped by cooling at −80°C, and 200 μL of acetonitrile and 20 μL of internal standard diazepam (200 ng/mL) were added for protein precipitation. The solution was fully vortexed and centrifuged at 13,000 × rpm for 10 min, and the supernatant was collected for data analysis by UPLC-MS/MS.” left out
as §4, §5
Background: Microsomes from liver hold many membrane-bound enzymes, among them those of drug oxidation.

In data set [2] the test system is CYP2C-1. The data set is described as follows: IC50 of vortioxetine on CYP2C-1 (amodiaquine) in RLMs. The conditions noted are these: rat, rat liver microsomes, probe amodiaquine. In kind it is in vitro ADME. How it is done: as §1, with “After 5.0 min of preincubation in the shaking water bath, the reaction was started with the addition of 1.0 mM NADPH. The incubated temperature at 37°C for 30 min. After the incubation, the enzyme reaction was stopped by cooling at −80°C, and 200 μL of acetonitrile and 20 μL of internal standard diazepam (200 ng/mL) were added for protein precipitation. The solution was fully vortexed and centrifuged at 13,000 × rpm for 10 min, and the supernatant was collected for data analysis by UPLC-MS/MS.” left out
as §4, §5

In the next data set the test system is CYP2C-3. As to the kind of experiment: Reversible inhibition kinetics (Lineweaver-Burk), CYP2C-3 in RLMs. Type of data set: in vitro ADME, rat. How it is done:
as §1, §2, §3, §4, §5

In another data set the target is CYP2D6 (Homo sapiens, UniProt P10635). The data set is described as follows: Reversible inhibition kinetics (Lineweaver-Burk), CYP2D6 in HLMs. In kind it is in vitro ADME. The conditions noted are these: dextromethorphan. Also on record: 0.20 mg/mL HLMs; from tissue; host or cells: human liver microsomes. How it is done: as §1, with “After 5.0 min of preincubation in the shaking water bath, the reaction was started with the addition of 1.0 mM NADPH. The incubated temperature at 37°C for 30 min. After the incubation, the enzyme reaction was stopped by cooling at −80°C, and 200 μL of acetonitrile and 20 μL of internal standard diazepam (200 ng/mL) were added for protein precipitation. The solution was fully vortexed and centrifuged at 13,000 × rpm for 10 min, and the supernatant was collected for data analysis by UPLC-MS/MS.” left out
Chain of CYP2D6 (P10635 whole entry): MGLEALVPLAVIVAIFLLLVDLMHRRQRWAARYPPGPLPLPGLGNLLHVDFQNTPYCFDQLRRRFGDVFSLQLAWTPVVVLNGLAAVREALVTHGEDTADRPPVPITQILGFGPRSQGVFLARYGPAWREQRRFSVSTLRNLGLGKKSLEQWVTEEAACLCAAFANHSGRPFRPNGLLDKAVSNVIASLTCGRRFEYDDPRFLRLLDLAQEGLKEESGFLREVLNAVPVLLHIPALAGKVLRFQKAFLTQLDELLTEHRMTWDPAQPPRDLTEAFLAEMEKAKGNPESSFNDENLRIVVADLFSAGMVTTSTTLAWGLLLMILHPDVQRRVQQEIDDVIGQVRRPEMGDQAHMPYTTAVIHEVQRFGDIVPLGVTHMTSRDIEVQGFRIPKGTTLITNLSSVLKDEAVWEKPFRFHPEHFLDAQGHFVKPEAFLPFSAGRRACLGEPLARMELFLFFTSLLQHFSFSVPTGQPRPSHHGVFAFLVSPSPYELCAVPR
as §4, §5

[3] abbreviates: inhibitory effect (strength judged by IC50), RLMs.

On to `Cc1ccc(Sc2ccccc2N2CCNCC2)c(C)c1` [vortioxetine], for which the IC50 at 30 min was 16.4 µM with CYP3A (30 min preincubation with 1.0 mM NADPH); 20.9 µM with CYP3A (30 min preincubation without NADPH); 0.37 µM with CYP2C-2 (RLMs 0.20 mg/mL, losartan at Km, 37°C, 30 min, read-out: IC50); less than 1 µM with CYP2C-2 (setting [3]); 22.2 µM in the data set on CYP2C-1 [2] (RLMs 0.20 mg/mL, amodiaquine at Km, 37°C, 30 min, read-out: IC50); more than 10 µM in the data set with CYP2C-1 [2] (setting [3]). Further, the IC50 shift at 30 min with CYP3A (ratio IC50 (−) NADPH to IC50 (+) NADPH, read-out: IC50 fold shift) amounted to 1.28. The α in the data set on CYP2C-1 [1] (amodiaquine) is on record as 1.42; in the data set with CYP2C-3 (mephenytoin), 2.97. For the same molecule, the Inhibition type result with CYP2C-1 [1] (amodiaquine, Lineweaver-Burk plot) is “mixed inhibition”; in the data set on CYP2D (dextromethorphan, Lineweaver-Burk plot) it was “uncompetitive inhibition”; in the data set on CYP2C-3 (mephenytoin, Lineweaver-Burk plot), “noncompetitive inhibition”; at CYP2D6 (Lineweaver-Burk plot) it was “competitively inhibited; also recorded: competitive inhibition”. In addition, the αKi in the data set with CYP2C-1 [1] (amodiaquine, secondary plot of y-intercepts) is 56.73 µM; in the data set with CYP2C-3 (mephenytoin, secondary plot of y-intercepts), 12.54 µM. Moreover, the Ki at 30 min is 39.9 µM in the data set on CYP2C-1 [1] (rat, rat liver microsomes, probe amodiaquine); 101 µM in the data set with CYP2D (rat, rat liver microsomes, probe dextromethorphan); 4.23 µM with CYP2C-3 (rat, rat liver microsomes, probe mephenytoin). At CYP2D6, the Ki was 9.37 µM.

The record behind these values is article PMC10544575, “Inhibitory mechanism of vortioxetine on CYP450 enzymes in human and rat liver microsomes” (Frontiers in Pharmacology, 2023).
